We go through eight molecules from US8188093B2, “Pyrazinecarboxamide derivatives as HDL-cholesterol raising agents” (Hoffmann-La Roche Inc., priority 2006, dated 2012).

The structures appear in SMILES notation.

Data set [1] has as its system obese male Sprague Dawley rats. The experiment in a line: Effects on plasma lipid levels (HDL cholesterol) in obese, high fat diet fed rats. It is filed as in vivo, rat. As to conditions: 28-29 days. The method, then:
Efficacy of compounds in modulating plasma lipid levels was determined also in obese male Sprague Dawley rats after 28-29 days administration of compounds. Male Sprague-Dawley rats of 10 weeks of age were fed a high fat diet during 3 weeks. Obese rats were distributed in groups according to homogeneous BW and FI evaluated a week before the start of the treatment. Treatment was administered as food-Admix. On day 29, blood was taken in the morning under slight anesthesia (retro-orbital method) in post-prandial conditions i.e. 4 h after food was removed. Plasma was separated from blood by low speed centrifugation and selected organs were taken (e.g. liver, fat). Total cholesterol, HDL-cholesterol, and triglycerides were determined by measuring total cholesterol, HDL-cholesterol and triglyceride using colorimetric enzymatic assays (Roche Diagnostic GmbH, Mannheim, Germany). HDL-C was also quantified using size exclusion chromatography on superpose-6 column using a SMART system (Pharmacia). Lipoprotein distribution was calculated assuming a Gaussian distribution for each peak, using a nonlinear, least-squares curve-fitting procedure to calculate the area under the curve (AUC). Compound concentration was also determined in plasma.

In data set [2] the test system is lean, chow-fed male Sprague-Dawley rats. As to the kind of experiment: Effects on plasma lipid levels (HDL cholesterol) in lean, chow fed rats. The data set is classed as in vivo, rat. To be noted: 30 mg/kg p.o. of compound, once daily for five days, size exclusion chromatography AUC. The method, then: Effects of compounds of formula I on plasma lipid levels were determined in lean, chow-fed male Sprague-Dawley rats with compounds administered by p.o. gavage. After one week of acclimation, blood samples were collected from 4 hour-fasted animals for plasma lipid determination. Animals were then assigned to treatment groups based on HDL-cholesterol levels. Compounds of formula I were administered by gavage, once daily for five days. Control animals received vehicle alone. Blood was collected on day five from 4 hour-fasted rats, 2 hours after a final treatment, for plasma lipid analysis. Total cholesterol, HDL-cholesterol, and triglycerides were determined by measuring total cholesterol, HDL-cholesterol, and triglyceride using colorimetric enzymatic assays (Roche Diagnostic GmbH, Mannheim, Germany). HDL-C was also quantified using size exclusion chromatography on superpose-6 column using a SMART system (Pharmacia). Lipoprotein distribution was calculated assuming a Gaussian distribution for each peak, using a nonlinear, least-squares curve-fitting procedure to calculate the area under the curve (AUC). Compound concentration was also determined in plasma.

The next data set relates to hamsters. As to the kind of experiment: Effects on plasma lipid levels (HDL cholesterol) in hamsters. It is filed as in vivo, hamster. To be noted: 30 mg/kg po of compound, once daily for five days. Here is the method:
Efficacy of compounds in modulating plasma lipid levels was determined in hamsters after 5 days of daily administration of compounds. Male hamsters of 6-8 weeks of age were used in the studies. After one week of acclimation, blood samples were collected from 4 hour-fasted animals for plasma lipid determination. Animals were then assigned to treatment groups based on HDL-cholesterol levels. Compounds were administered by gavage, once daily for five days. Control animals received vehicle alone. Blood was collected on day five from 4 hour-fasted hamsters, 2 hours after a final treatment, for plasma lipid analysis. Total cholesterol, HDL-cholesterol, LDL-cholesterol, and triglycerides were determined using colorimetric enzymatic assays (Roche Diagnostic GmbH, Mannheim, Germany). HDL-cholesterol, LDL-cholesterol, and VLDL-cholesterol levels were also quantified using size exclusion chromatography on superpose-6 column using a SMART system (Pharmacia). Lipoprotein distribution was calculated assuming a Gaussian distribution for each peak, using a nonlinear, least-squares curve-fitting procedure to calculate the area under the curve. Compound concentration was also determined in plasma.

The mark [3] stands for this setting: 30 mg/kg food admix of compound.

As a reminder, the melting point is the temperature, or range, at which the solid turns liquid.

In the case of `Cc1c(C(=O)NN2CCCCC2)nn(-c2ccc(Cl)cc2Cl)c1-c1ccc(Cl)cc1` [Rimonabant, reference compound], the “HDL Cholesterol levels [AUC as % compared to control]” value in data set [1] (10 mg/kg food admix) is given as “+11%”. `O=C(N[C@@H]1CCCC[C@H]1O)c1cnc(OCC2CC2)c(-c2ccc(F)cc2)c1` [6-cyclopropylmethoxy-5-(4-fluoro-phenyl)-N-((1R,2R)-2-hydroxy-cyclohexyl)-nicotinamide]: in data set [2], the “HDL Cholesterol levels [AUC as % compared to control]” value is listed as “+35%”. The same measure, in the same setting: the result for `C[C@](O)(CNC(=O)c1cnc(OCC2CC2)c(-c2ccc(F)cc2)c1)C1CC1` [N—((R)-2-cyclopropyl-2-hydroxy-propyl)-6-cyclopropylmethoxy-5-(4-fluorophenyl)-nicotinamide] reads “+73%”. In turn, `CCCCOc1ncc(C(=O)N[C@@H]2CCCC[C@H]2O)cc1-c1cc(C(F)(F)F)ccc1F` came in with a melting point of 172 to 178 °C. On to `O=C(N[C@@H]1CCCC[C@H]1O)c1cnc(OCC(F)(F)F)c(-c2ccc(Cl)cc2)c1` [5-(4-chloro-phenyl)-N-((1R,2R)-2-hydroxy-cyclohexyl)-6-(2,2,2-trifluoroethoxy)-nicotinamide], for which the entries for the “HDL Cholesterol levels [AUC as % compared to control]” value (in data set [2]; in the data set with hamsters) were “+78%” and “+69%”, respectively. As to `O=C(N[C@@H]1CCCC[C@H]1O)c1cnc(OCC2CC2)c(-c2ccc(Cl)cc2)c1` [5-(4-chloro-phenyl)-6-cyclopropylmethoxy-N-((1R,2R)-2-hydroxy-cyclohexyl)-nicotinamide], the “HDL Cholesterol levels [AUC as % compared to control]” value in data set [2] is listed as “+30%”; in data set [1] (setting [3]), “+84%”. On to `COCCOc1ncc(C(=O)N[C@@H]2CCCC[C@H]2O)cc1-c1ccc(Cl)cc1` [5-(4-chloro-phenyl)-N-((1R,2R)-2-hydroxy-cyclohexyl)-6-(2-methoxy-ethoxy)-nicotinamide], for which the “HDL Cholesterol levels [AUC as % compared to control]” value in data set [1] (setting [3]) was “+50%”. `O=C(N[C@@H]1CCCC[C@H]1O)c1cnc(Oc2ccccc2Cl)c(-c2ccc(Cl)cc2)n1` [Example 39, 5-(2-Chloro-phenoxy)-6-(4-chloro-phenyl)-pyrazine-2-carboxylic acid ((1R,2R)-2-hydroxy-cyclohexyl)-amide] showed a melting point of 154 to 155 °C.
